Target: T1, Human OTUB1 wild-type (Homo sapiens, UniProt Q96FW1)
T1 construct: His tag (N); made in house; host or cells: E. coli BL21-CodonPlus (DE3)-RIPIL
Experiment: Covalent modification of OTUB1 (adduct formation), mass spectrometry-based assay (OTUB1 covalent binders; selected CFTR or cGAS based bivalent compounds)
Type: binding
Settings: covalent adduct formation with OTUB1 protein
Outline: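 His-tagged human OTUB1 (10 μM), E. coli-expressed, incubated with compound (2500 μM) in 50 mM Tris-HCl pH 7.5, 150 mM NaCl, 0.5 mM TCEP for 1 h at room temperature. Adduct detected by intact-protein LC/ESI-TOF mass spectrometry after buffer exchange; duplicates.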

T1 sequence (Q96FW1 whole entry): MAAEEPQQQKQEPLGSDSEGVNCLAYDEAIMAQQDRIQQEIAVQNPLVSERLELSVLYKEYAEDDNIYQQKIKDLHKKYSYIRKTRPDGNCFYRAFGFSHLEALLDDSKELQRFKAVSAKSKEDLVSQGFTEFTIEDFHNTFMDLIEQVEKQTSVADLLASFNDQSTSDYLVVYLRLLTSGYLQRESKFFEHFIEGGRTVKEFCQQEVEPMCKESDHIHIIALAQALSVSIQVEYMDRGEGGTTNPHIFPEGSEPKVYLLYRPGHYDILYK

| % of OTUB1 modified [%] | Compound |
| --- | --- |
| 20 | Cc1ccc(C(=O)N2CC3(CCN(C(=O)/C=C/CN(C)C)CC3)C2)s1 [XS185-66, (E)-4-(dimethylamino)-1-(2-(5-methylthiophene-2-carbonyl)-2,7-diazaspiro[3.5]nonan-7-yl)but-2-en-1-one] |
| <1 | Cc1ccc(N2CCN(C(=O)/C=C/CN(C)C)CC2)s1 [XS165-172, (E)-4-(dimethylamino)-1-(4-(5-methylthiophen-2-yl)piperazin-1-yl)but-2-en-1-one] |
| 18 | Cc1ccc(NC(=O)C2CC3(C2)CN(C(=O)/C=C/CN(C)C)C3)s1 [XS175-149, (E)-2-(4-(dimethylamino)but-2-enoyl)-N-(5-methylthiophen-2-yl)-2-azaspiro[3.3]heptane-6-carboxamide] |
| 10 | Cc1cccc(N2CCN(C(=O)/C=C/CN(C)C)CC2=O)n1 [XS165-109, (E)-4-(4-(dimethylamino)but-2-enoyl)-1-(6-methylpyridin-2-yl)piperazin-2-one] |
| 100 | Cc1ccc(NC(=O)C2CN(C(=O)C#CCN(C)C)C2)s1 [XS224-110, 1-(4-(dimethylamino)but-2-ynoyl)-N-(5-methylthiophen-2-yl)azetidine-3-carboxamide] |
| 85 | CC(C)c1ccc(C(=O)N2CC3CC(C2)N3C(=O)/C=C/CN(C)C)s1 [XS197-49, (E)-4-(dimethylamino)-1-(3-(5-isopropylthiophene-2-carbonyl)-3,6-diazabicyclo[3.1.1]heptan-6-yl)but-2-en-1-one] |
| 90 | CC(=O)N1CCC(c2ccc(C(=O)N3CC4CC(C3)N4C(=O)/C=C/CN(C)C)s2)CC1 [XS197-72, (E)-1-(3-(5-(1-acetylpiperidin-4-yl)thiophene-2-carbonyl)-3,6-diazabicyclo[3.1.1]heptan-6-yl)-4-(dimethylamino)but-2-en-1-one] |
| 80 | Cc1cc(N2CCN(C(=O)/C=C/CN(C)C)CC2=O)cs1 [XS175-59, (E)-4-(4-(dimethylamino)but-2-enoyl)-1-(5-methylthiophen-3-yl)piperazin-2-one] |
| <5 | C=CC(=O)N1CCN(c2cccc(C)n2)C(=O)C1 [XS159-90, 4-acryloyl-1-(6-methylpyridin-2-yl)piperazin-2-one] |
| 1 | Cc1ccc(C(=O)N2CCC(NC(=O)/C=C/CN(C)C)CC2)s1 [XS185-65, (E)-4-(dimethylamino)-N-(1-(5-methylthiophene-2-carbonyl)piperidin-4-yl)but-2-enamide] |
| 1 | C=C(C#N)CN1CCN(c2ccc(C)s2)C(=O)C1 [XS185-87, 2-((4-(5-methylthiophen-2-yl)-3-oxopiperazin-1-yl)methyl)acrylonitrile] |
| 90 | CN(C)CC#CC(=O)N1CC(C)(C(=O)Nc2cc3ccccc3s2)C1 [XS209-175, N-(benzo[b]thiophen-2-yl)-1-(4-(dimethylamino)but-2-ynoyl)-3-methylazetidine-3-carboxamide] |

More lines, now with the values behind:

| Compound | % of OTUB1 modified [%] |
| --- | --- |
| CC(=O)N1CCC(c2ccc(N3CC4CCC(C3=O)N4C(=O)/C=C/CN(C)C)s2)CC1 (stereo not drawn) [XS197-145, (E)-3-(5-(1-acetylpiperidin-4-yl)thiophen-2-yl)-8-(4-(dimethylamino)but-2-enoyl)-3,8-diazabicyclo[3.2.1]octan-2-one] | 90 |
| Cc1ccc(N2CC3CCC(C2=O)N3C(=O)/C=C/CN(C)C)[nH]1 (stereo not drawn) [XS197-14, (E)-8-(4-(dimethylamino)but-2-enoyl)-3-(5-methyl-1H-pyrrol-2-yl)-3,8-diazabicyclo[3.2.1]octan-2-one] | 85 |
| COCC#Cc1ccc(C(=O)N2CC3CC(C2)N3C(=O)/C=C/CN(C)C)s1 [XS197-93, (E)-4-(dimethylamino)-1-(3-(5-(3-methoxyprop-1-yn-1-yl)thiophene-2-carbonyl)-3,6-diazabicyclo[3.1.1]heptan-6-yl)but-2-en-1-one] | 80 |
| Cc1ccc(NC(=O)C2CN(C(=O)C#CC(C)(C)N(C)C)C2)s1 [XS224-111, 1-(4-(dimethylamino)-4-methylpent-2-ynoyl)-N-(5-methylthiophen-2-yl)azetidine-3-carboxamide] | 53 |
| Cc1cccc(N2CC3CCC(C2=O)N3C(=O)/C=C/CN(C)C)c1 (stereo not drawn) [XS190-182, (E)-8-(4-(dimethylamino)but-2-enoyl)-3-(m-tolyl)-3,8-diazabicyclo[3.2.1]octan-2-one] | 90 |
| Cc1cc(C)c(N2CCN(C(=O)/C=C/CN(C)C)CC2=O)s1 [XS175-45, (E)-4-(4-(dimethylamino)but-2-enoyl)-1-(3,5-dimethylthiophen-2-yl)piperazin-2-one] | 45 |
| Cc1ccc(C(=O)N2C3CC2CN(C(=O)/C=C/CN(C)C)C3)s1 [XS185-67, (E)-4-(dimethylamino)-1-(6-(5-methylthiophene-2-carbonyl)-3,6-diazabicyclo[3.1.1]heptan-3-yl)but-2-en-1-one] | 15 |
| Cc1ccc(C(=O)NC2CN(C(=O)C#CCN(C)C)C2)s1 [XS224-150, N-(1-(4-(dimethylamino)but-2-ynoyl)azetidin-3-yl)-5-methylthiophene-2-carboxamide] | 73 |
| Cc1cnc(NC(=O)C2(C)CN(C(=O)/C=C/CN(C)C)C2)s1 [XS209-38, (E)-1-(4-(dimethylamino)but-2-enoyl)-3-methyl-N-(5-methylthiazol-2-yl)azetidine-3-carboxamide] | 20 |
| CCCC(=O)N1CC2CC(C1)N2C(=O)C#CC(C)(C)N(C)C [XS209-168, 1-(3-butyryl-3,6-diazabicyclo[3.1.1]heptan-6-yl)-4-(dimethylamino)-4-methylpent-2-yn-1-one] | 15 |
| Cc1ccc(C(=O)N2CC3CC(C2)N3C(=O)C#CC(C)(C)N(C)C)s1 [XS209-75, 4-(dimethylamino)-4-methyl-1-(3-(5-methylthiophene-2-carbonyl)-3,6-diazabicyclo[3.1.1]heptan-6-yl)pent-2-yn-1-one] | 75 |
| Cc1ccc(C(=O)N2CC(NC(=O)C#CC(C)(C)N(C)C)C2)s1 [XS224-145, 4-(dimethylamino)-4-methyl-N-(1-(5-methylthiophene-2-carbonyl)azetidin-3-yl)pent-2-ynamide] | 60 |
| CN(C)C/C=C/C(=O)N1CC(NC(=O)c2cc3ccccc3s2)C1 [XS224-154, (E)-N-(1-(4-(dimethylamino)but-2-enoyl)azetidin-3-yl)benzo[b]thiophene-2-carboxamide] | 80 |
| CN(C)C/C=C/C(=O)N1C2CC1CN(C(=O)c1cc3ccccc3s1)C2 [XS190-46, (E)-1-(3-(benzo[b]thiophene-2-carbonyl)-3,6-diazabicyclo[3.1.1]heptan-6-yl)-4-(dimethylamino)but-2-en-1-one] | 90 |
| Cc1ccsc1N1CCN(C(=O)/C=C/CN(C)C)CC1=O [XS175-68, (E)-4-(4-(dimethylamino)but-2-enoyl)-1-(3-methylthiophen-2-yl)piperazin-2-one] | 70 |
| C=CC(=O)N1CCN(c2ncc(C)s2)C(=O)C1 [XS154-148, 4-acryloyl-1-(5-methylthiazol-2-yl)piperazin-2-one] | 39 |
| CN(C)C/C=C/C(=O)N1C2CC1CN(C(=O)c1ccc(N3CCN(C)CC3)s1)C2 [XS209-185, (E)-4-(dimethylamino)-1-(3-(5-(4-methylpiperazin-1-yl)thiophene-2-carbonyl)-3,6-diazabicyclo[3.1.1]heptan-6-yl)but-2-en-1-one] | 85 |
| CC(=O)NCc1ccc(C(=O)N2CC3CC(C2)N3C(=O)/C=C/CN(C)C)s1 [XS190-130, (E)-N-((5-(6-(4-(dimethylamino)but-2-enoyl)-3,6-diazabicyclo[3.1.1]heptane-3-carbonyl)thiophen-2-yl)methyl)acetamide] | 53 |
| CC(C)c1ccc(NC(=O)C2CCN(C(=O)CCl)CC2)s1 [XS185-6, 1-(2-chloroacetyl)-N-(5-isopropylthiophen-2-yl)piperidine-4-carboxamide] | 100 |
| Cc1cnc(N2CCN(C(=O)CCl)CC2=O)s1 [XS165-123, 4-(2-chloroacetyl)-1-(5-methylthiazol-2-yl)piperazin-2-one] | 100 |
| CN(C)C/C=C/C(=O)N1CCN(c2c[nH]c3ccccc23)C(=O)C1 [XS185-43, (E)-4-(4-(dimethylamino)but-2-enoyl)-1-(1H-indol-3-yl)piperazin-2-one] | 58 |
| CC(C)c1ccc(NC(=O)C2CN(C(=O)/C=C/CN(C)C)C2)s1 [XS175-143, (E)-1-(4-(dimethylamino)but-2-enoyl)-N-(5-isopropylthiophen-2-yl)azetidine-3-carboxamide] | 45 |
| CC(C)c1ccc(NC(=O)C2CCN(C(=O)/C=C/CN(C)C)C2)s1 (stereo not drawn) [XS175-180, (E)-1-(4-(dimethylamino)but-2-enoyl)-N-(5-isopropylthiophen-2-yl)pyrrolidine-3-carboxamide] | 8 |
| Cc1cnc(N2CC3CCC(C2=O)N3C(=O)/C=C/CN(C)C)s1 (stereo not drawn) [XS190-183, (E)-8-(4-(dimethylamino)but-2-enoyl)-3-(5-methylthiazol-2-yl)-3,8-diazabicyclo[3.2.1]octan-2-one] | 95 |
| Cc1ccc(NC(=O)C2CCN(C(=O)/C=C/CN(C)C)C2)s1 (stereo not drawn) [XS175-133, (E)-1-(4-(dimethylamino)but-2-enoyl)-N-(5-methylthiophen-2-yl)pyrrolidine-3-carboxamide] | 2 |
| Cc1ccc(C(=O)N2CC(NC(=O)/C=C/CN(C)C)C2)s1 [XS224-143, (E)-4-(dimethylamino)-N-(1-(5-methylthiophene-2-carbonyl)azetidin-3-yl)but-2-enamide] | 7 |
| Cc1ccc(NC(=O)C2CN(C(=O)/C=C/CN(C)C)C2)s1 [XS175-71, (E)-1-(4-(dimethylamino)but-2-enoyl)-N-(5-methylthiophen-2-yl)azetidine-3-carboxamide] | 40 |

— patent US20260315604A1, “OTUB1 Small-Molecule Binders and OTUB1-recruiting Deubiquitinase-targeting Chimeras (DUBTACs)” (ICAHN SCHOOL OF MEDICINE AT MOUNT SINAI, priority 2023, published 2026)
